# Measurements as given in patent publication US12691107B2, “Methods for the treatment and prevention of lung infections caused by gram-positive bacteria, fungus, or virus by administration of tafenoquine” (priority 2020, dated 2026).
# “And” between values parts separate entries of the source, which are not always exact repeats. Equal entries are not always repeated. Where two headings read alike, the source gives them in different places.
# Key:
# HCMV strain AD169 = assay: CPE assay for HCMV in HFF cells; assay type: cell-based; conditions: Human betaherpesvirus 5, AD169
# Pneumocystis [1] = conditions: cited from earlier work; for minimum dose required to reduce parasitemia nearly to zero: two to three week period
# [2] = female, rat, in vivo, 2 mg/kg
# [3] = Plasma levels of tafenoquine in humans; conditions: human, in vivo
# GPCMV strain 22122 = assay: GPCMV qPCR assay in Guinea Pig Lung cells; assay type: cell-based; conditions: Cavia porcellus, 168 h, 7 d
# Pneumocystis [4] = assay: Pneumocystis in vitro (Bartlett et al., 1991); assay type: cell-based; conditions: read-out: equivalent MIC in the absence of protein
# Text: Therefore, the minimum inhibitory concentration in vitro is approximately 10 microgram/ml.
# Plasmodium cynomolgi = conditions: for three days; cited from earlier work
# SARS-CoV-2 [5] = assay: microbe, parasite or virus in culture; assay type: cell-based
# [6] = in vivo, cited from earlier work
# SARS-CoV-2 [7] = assay: SARS-CoV-2 antiviral assay in CALU-3 cells; assay type: cell-based; conditions: Severe acute respiratory syndrome coronavirus 2, medium with 10% fetal bovine serum, read-out: EC50 (same as IC50 of FIG. 4)
# P. falciparum = conditions: seven strains, three repeat assays; cited from earlier work
# Apophysomyces sp. = assay: Antifungal MIC (RPMI-1640 microdilution); assay type: cell-based
# Curvularia sp. = assay: Antifungal MIC (RPMI-1640 microdilution); assay type: cell-based
# Emergomyces sp. = assay: Antifungal MIC (RPMI-1640 microdilution); assay type: cell-based
# Scedosporium sp. = assay: Antifungal MIC (RPMI-1640 microdilution); assay type: cell-based
# Fusarium sp. = assay: Antifungal MIC (RPMI-1640 microdilution); assay type: cell-based
# Rhizopus arrhizus = assay: Antifungal MIC (RPMI-1640 microdilution); assay type: cell-based
# Candida auris = assay: Antifungal MIC (RPMI-1640 microdilution); assay type: cell-based
# Exserohilum sp. = assay: Antifungal MIC (RPMI-1640 microdilution); assay type: cell-based
# Saksenaea sp. = assay: Antifungal MIC (RPMI-1640 microdilution); assay type: cell-based
# Cryptococcus neoformans = assay: Antifungal MIC (RPMI-1640 microdilution); assay type: cell-based
# Enterococcus faecium = assay: Antibacterial MIC (broth microdilution); assay type: cell-based; conditions: isolate 1593
# Altenaria sp. = assay: Antifungal MIC (RPMI-1640 microdilution); assay type: cell-based; conditions: isolate Alt1
# Candida albicans = assay: Antifungal MIC (RPMI-1640 microdilution); assay type: cell-based
# Coccidioides sp. = assay: microbe, parasite or virus in culture; assay type: cell-based
# Candida glabrata = assay: Antifungal MIC (RPMI-1640 microdilution); assay type: cell-based
smiles,measurement,setting,value
"COc1cc(C)c2c(Oc3cccc(C(F)(F)F)c3)c(OC)cc(NC(C)CCCN)c2n1 (stereo not drawn) [Tafenoquine, N(4)-[2,6-Dimethoxy-4-methyl-5-[3-(trifluoromethyl)phenoxy]quinolin-8-yl]pentane-1,4-diamine]",EC50,HCMV strain AD169,> 6 µM
same,minimum dose required to reduce parasitemia nearly to zero,"Pneumocystis [1]; prophylaxis, once every 4 days orally",4 mg/kg
same,Dose in female rats required to exhibit a statistically significant impairment of Pneumocystis replication,Pneumocystis [1]; treatment modality,2 mpk q 4 days and 2 mpk q 4 mpk q 4 days
same,minimum dose required to reduce parasitemia nearly to zero,"Pneumocystis [1]; treatment, daily orally",4 mg/kg/day
same,Estimate of plasma concentration following a single dose of 2 mpk in rats,[2],35.84 ng/mL
same,ratio between steady state and single dose concentrations,[3],approximately 3.3
same,EC50,GPCMV strain 22122,> 6 µM
same,MIC,Pneumocystis [4],5 µg/mL
same,dose required to eliminate the replicating blood stage forms,Plasmodium cynomolgi,6 mg/kg/day
same,dose required to kill the quiescent hypnozoites,Plasmodium cynomolgi,0.6 mg/kg/day
same,selectivity index,SARS-CoV-2 [5]; 4-day assay,2.4
same,EC50,"SARS-CoV-2 [5]; Severe acute respiratory syndrome coronavirus 2, Vero C1008, 96 h",15.7 µM
same,Cmax of a single dose of 200 mg,[6]; 200 mg,[147 ng/ml *4.4].
same,Cmax following a single dose,[6],approximately 90 nanogram/ml
same,dose proportionality of pharmacokinetics,[6],proportional with the dose administered in the therapeutic range
same,steady state Cmax,[6],300 nanogram/ml
same,steady state concentrations in 95% of individuals,[6],above 80 nanogram/ml
same,EC50,SARS-CoV-2 [7],8.6 µM
same,fold more potent than primaquine (average 50% inhibitory concentrations),P. falciparum,7.1 fold
COc1cc(C)c2c(Oc3cccc(C(F)(F)F)c3)c(OC)cc(NC(C)CCCN)c2n1.O=C(O)CCC(=O)O (stereo not drawn) [Tafenoquine Succinate],MIC50,"Apophysomyces sp.; read-out: MIC 50% inhibition, isolate Apo1",8 µg/mL
same,MIC50,"Apophysomyces sp.; read-out: MIC 50% inhibition, isolate Apo2",2 µg/mL
same,MIC50,"Apophysomyces sp.; read-out: MIC 50% inhibition, isolate Apo3",16 µg/mL
same,MIC,"Apophysomyces sp.; read-out: MIC 100% inhibition, isolate Apo1",8 µg/mL
same,MIC,"Apophysomyces sp.; read-out: MIC 100% inhibition, isolate Apo2",4 µg/mL
same,MIC,"Apophysomyces sp.; read-out: MIC 100% inhibition, isolate Apo3",32 µg/mL
same,MIC50,"Curvularia sp.; read-out: MIC 50% inhibition, isolate Curv1",2 µg/mL
same,MIC,"Curvularia sp.; read-out: MIC 100% inhibition, isolate Curv1",8 µg/mL
same,MIC 100% inhibition,Emergomyces sp.; isolate Emerg3,4 µg/mL
same,MIC50,"Emergomyces sp.; read-out: MIC 50% inhibition, isolate Emerg2",4 µg/mL
same,MIC50,"Emergomyces sp.; read-out: MIC 50% inhibition, isolate Emerg3",2 µg/mL
same,MIC,"Emergomyces sp.; read-out: MIC 100% inhibition, isolate Emerg2",4 µg/mL
same,MIC50,"Scedosporium sp.; Scedosporium, read-out: MIC 50% inhibition, isolate 00-180",4 µg/mL
same,MIC,"Scedosporium sp.; Scedosporium, read-out: MIC 100% inhibition, isolate 00-180",8 µg/mL
same,MIC,"Scedosporium sp.; Scedosporium, read-out: MIC 100% inhibition, isolate LPI",8 µg/mL
same,MIC,"Scedosporium sp.; Scedosporium, read-out: MIC 100% inhibition, isolate Scedo1",4 µg/mL
same,MIC 50% inhibition,Scedosporium sp.; isolate LPI,4 µg/mL
same,MIC 50% inhibition,Scedosporium sp.; isolate Scedo1,4 µg/mL
same,MIC50,"Fusarium sp.; read-out: MIC 50% inhibition, isolate FO1",8 µg/mL
same,MIC50,"Fusarium sp.; read-out: MIC 50% inhibition, isolate FS2",16 µg/mL
same,MIC50,"Fusarium sp.; read-out: MIC 50% inhibition, isolate FSI",8 µg/mL
same,MIC,"Fusarium sp.; read-out: MIC 100% inhibition, isolate FO1",16 µg/mL
same,MIC,"Fusarium sp.; read-out: MIC 100% inhibition, isolate FS2",16 µg/mL
same,MIC,"Fusarium sp.; read-out: MIC 100% inhibition, isolate FSI",16 µg/mL
same,MIC50,"Rhizopus arrhizus; read-out: MIC 50% inhibition, isolate 99-880",4 µg/mL
same,MIC50,"Rhizopus arrhizus; read-out: MIC 50% inhibition, isolate 99-892",4 µg/mL
same,MIC50,"Rhizopus arrhizus; read-out: MIC 50% inhibition, isolate RAI",8 µg/mL
same,MIC,"Rhizopus arrhizus; read-out: MIC 100% inhibition, isolate 99-880",4 µg/mL
same,MIC,"Rhizopus arrhizus; read-out: MIC 100% inhibition, isolate 99-892",4 µg/mL
same,MIC,"Rhizopus arrhizus; read-out: MIC 100% inhibition, isolate RAI",16 µg/mL
same,MIC50,"Candida auris; Candidozyma auris, read-out: MIC 50% inhibition, isolate DI17-46",4 µg/mL
same,MIC50,"Candida auris; Candidozyma auris, read-out: MIC 50% inhibition, isolate DI17-47",4 µg/mL
same,MIC50,"Candida auris; Candidozyma auris, read-out: MIC 50% inhibition, isolate DI17-48",2 µg/mL
same,MIC,"Candida auris; Candidozyma auris, read-out: MIC 100% inhibition, isolate DI17-47",4 µg/mL
same,MIC 100% inhibition,Candida auris; isolate DI17-46,4 µg/mL
same,MIC 100% inhibition,Candida auris; isolate DI17-48,4 µg/mL
same,MIC50,"Exserohilum sp.; read-out: MIC 50% inhibition, isolate Exser1",4 µg/mL
same,MIC,"Exserohilum sp.; read-out: MIC 100% inhibition, isolate Exser1",8 µg/mL
same,MIC50,"Saksenaea sp.; read-out: MIC 50% inhibition, isolate Sak1",4 µg/mL
same,MIC50,"Saksenaea sp.; read-out: MIC 50% inhibition, isolate Sak2",2 µg/mL
same,MIC50,"Saksenaea sp.; read-out: MIC 50% inhibition, isolate Sak3",8 µg/mL
same,MIC,"Saksenaea sp.; read-out: MIC 100% inhibition, isolate Sak1",8 µg/mL
same,MIC,"Saksenaea sp.; read-out: MIC 100% inhibition, isolate Sak2",2 µg/mL
same,MIC,"Saksenaea sp.; read-out: MIC 100% inhibition, isolate Sak3",8 µg/mL
same,MIC50,"Cryptococcus neoformans; Cryptococcus neoformans, read-out: MIC 50% inhibition, isolate CN3",4 µg/mL
same,MIC50,"Cryptococcus neoformans; Cryptococcus neoformans, read-out: MIC 50% inhibition, isolate H99",4 µg/mL
same,MIC50,"Cryptococcus neoformans; Cryptococcus neoformans, read-out: MIC 50% inhibition, isolate USC1597",4 µg/mL
same,MIC,"Cryptococcus neoformans; Cryptococcus neoformans, read-out: MIC 100% inhibition, isolate USC1597",4 µg/mL
same,MIC 100% inhibition,Cryptococcus neoformans; isolate CN3,4 µg/mL
same,MIC 100% inhibition,Cryptococcus neoformans; isolate H99,4 µg/mL
same,MIC,Enterococcus faecium,8 µg/mL
same,MIC50,Altenaria sp.; read-out: MIC 50% inhibition,2 µg/mL
same,MIC,Altenaria sp.; read-out: MIC 100% inhibition,4 µg/mL
same,MIC50,"Candida albicans; ATCC90028, read-out: MIC 50% inhibition, isolate ATCC 90028",4 µg/mL
same,MIC,"Candida albicans; ATCC90028, read-out: MIC 100% inhibition, isolate ATCC 90028",4 µg/mL
same,MIC50,"Candida albicans; read-out: MIC 50% inhibition, isolate CA3",4 µg/mL
same,MIC50,"Candida albicans; read-out: MIC 50% inhibition, isolate SC5314",8 µg/mL
same,MIC,"Candida albicans; read-out: MIC 100% inhibition, isolate CA3",4 µg/mL
same,MIC,"Candida albicans; read-out: MIC 100% inhibition, isolate SC5314",8 µg/mL
same,MIC50,"Coccidioides sp.; read-out: MIC 50% inhibition, isolate Cocci1",4 µg/mL
same,MIC50,"Coccidioides sp.; read-out: MIC 50% inhibition, isolate Cocci2",16 µg/mL
same,MIC50,"Coccidioides sp.; read-out: MIC 50% inhibition, isolate D117-143",16 µg/mL
same,MIC,"Coccidioides sp.; read-out: MIC 100% inhibition, isolate Cocci1",8 µg/mL
same,MIC,"Coccidioides sp.; read-out: MIC 100% inhibition, isolate Cocci2",16 µg/mL
same,MIC,"Coccidioides sp.; read-out: MIC 100% inhibition, isolate D117-143",16 µg/mL
same,MIC50,"Candida glabrata; Nakaseomyces glabratus, read-out: MIC 50% inhibition, isolate 05-62",8 µg/mL
same,MIC50,"Candida glabrata; Nakaseomyces glabratus, read-out: MIC 50% inhibition, isolate 05-761",8 µg/mL
same,MIC50,"Candida glabrata; Nakaseomyces glabratus, read-out: MIC 50% inhibition, isolate CG3",8 µg/mL
same,MIC,"Candida glabrata; Nakaseomyces glabratus, read-out: MIC 100% inhibition, isolate 05-62",8 µg/mL
same,MIC 100% inhibition,Candida glabrata; isolate 05-761,8 µg/mL
same,MIC 100% inhibition,Candida glabrata; isolate CG3,8 µg/mL
